Measured values: patent US11793824B2, “Administration of nicotinamide mononucleotide in the treatment of disease” (Washington University, priority 2013, dated 2023)

Test system: neurospheres (NSPCs)
Assay: Microarray with parametric analysis of gene set enrichment (PAGE) of FK866-treated neurospheres
Type: cell-based, mouse
Description: For individual genes, raw microarray data were subjected to Z score transformation, and Z ratios were calculated as described previously (Cheadle et al, 2003). Subsequent analysis and Parametric Analysis of Gene Set Enrichment (PAGE) analysis was performed as previously described (Yoshino et al, 2011). The microarray data used in this study has been deposited into the NCBI GEO database (GEO accession number GSE49784).
The inventors investigated how inhibition of Nampt affects neurosphere proliferation. […] To distinguish whether this decrease in cell number was due to an inhibition of proliferation or enhancement of death, the inventors analyzed the protein levels of markers of proliferation, apoptosis, and autophagy. […] Parametric analysis of gene enrichment (PAGE) was conducted based on microarray analyses. See the Methods section. […] Data are presented as mean±s.e.m. *P<0.05. **P<0.01. ***P<0.001.

[1] = FK866 10 nM 48 hours, downregulated pathway
[2] = FK866 10 nM 48 hours, upregulated pathway

O=C(/C=C/c1cccnc1)NCCCCC1CCN(C(=O)c2ccccc2)CC1 [FK866]
Z Ratio: BASE_EXCISION_REPAIR [1]: −4.3 | Z Ratio: CELL_CYCLE_CHECKPOINT_GO_0000075 [1]: −3.92 | Z Ratio: CELL_CYCLE_GO_0007049 [1]: −4.63 | Z Ratio: CELL_CYCLE_PHASE [1]: −4.23 | Z Ratio: CELL_CYCLE_PROCESS [1]: −4.75 | Z Ratio: CHROMOSOMAL_PART [1]: −3.48 | Z Ratio: CHROMOSOME [1]: −4.75 | Z Ratio: CONDENSED_CHROMOSOME [1]: −3.57 | Z Ratio: CONDENSED_NUCLEAR_CHROMOSOME [1]: −3.36 | Z Ratio: DNA_DEPENDENT_DNA_REPLICATION [1]: −6.07 | Z Ratio: DNA_INTEGRITY_CHECKPOINT [1]: −3.2 | Z Ratio: DNA_METABOLIC_PROCESS [1]: −6.49 | Z Ratio: DNA_RECOMBINATION [1]: −3.69 | Z Ratio: DNA_REPAIR [1]: −5.98 | Z Ratio: DNA_REPLICATION [1]: −6.2 | Z Ratio: DOUBLE_STRANDED_DNA_BINDING [1]: −3.95 | Z Ratio: HYDROLASE_ACTIVITY_HYDROLYZING_N_GLYCOSYL_COMPOUNDS [1]: −3.63 | Z Ratio: INTERPHASE [1]: −3.28 | Z Ratio: INTERPHASE_OF_MITOTIC_CELL_CYCLE [1]: −3.07 | Z Ratio: INTRACELLULAR_NON_MEMBRANE_BOUND_ORGANELLE [1]: −3.46 | Z Ratio: INTRACELLULAR_ORGANELLE_PART [1]: −5.85 | Z Ratio: MACROMOLECULAR_COMPLEX [1]: −4.14 | Z Ratio: MEMBRANE_ENCLOSED_LUMEN [1]: −5.04 | Z Ratio: METHYLTRANSFERASE_ACTIVITY [1]: −3.3 | Z Ratio: MITOTIC_CELL_CYCLE [1]: −3.48 | Z Ratio: M_PHASE [1]: −3.67 | Z Ratio: NON_MEMBRANE_BOUND_ORGANELLE [1]: −3.46 | Z Ratio: NUCLEAR_CHROMOSOME [1]: −4.11 | Z Ratio: NUCLEAR_LUMEN [1]: −4.74 | Z Ratio: NUCLEAR_PART [1]: −7.07 | Z Ratio: NUCLEOBASE_NUCLEOSIDE_AND_NUCLEOTIDE_METABOLIC_PROCESS [1]: −3.35 | Z Ratio: NUCLEOBASE_NUCLEOSIDE_NUCLEOTIDE_AND_NUCLEIC_ACID [1]: −5.34 | Z Ratio: NUCLEOLUS [1]: −3.47 | Z Ratio: NUCLEOPLASM [1]: −3.62 | Z Ratio: NUCLEOTIDE_METABOLIC_PROCESS [1]: −3.21 | Z Ratio: NUCLEUS [1]: −5.95 | Z Ratio: ORGANELLE_LUMEN [1]: −5.04 | Z Ratio: ORGANELLE_PART [1]: −5.72 | Z Ratio: PROTEIN_COMPLEX [1]: −3.08 | Z Ratio: REPLICATION_FORK [1]: −3.6 | Z Ratio: RESPONSE_TO_DNA_DAMAGE_STIMULUS [1]: −5.8 | Z Ratio: RESPONSE_TO_ENDOGENOUS_STIMULUS [1]: −4.18 | Z Ratio: RIBONUCLEOPROTEIN_COMPLEX [1]: −3.49 | Z Ratio: RNA_BINDING [1]: −3.44 | Z Ratio: RNA_PROCESSING [1]: −4.32 | Z Ratio: SINGLE_STRANDED_DNA_BINDING [1]: −3.17 | Z Ratio: STRUCTURE_SPECIFIC_DNA_BINDING [1]: −4.08 | Z Ratio: TRANSFERASE_ACTIVITY_TRANSFERRING_ONE_CARBON_GROUPS [1]: −3.37 | Z Ratio: TRNA_METABOLIC_PROCESS [1]: −3.76 | Z Ratio: TRNA_PROCESSING [1]: −3.51 | Z Ratio: ACTIN_FILAMENT_BASED_PROCESS [2]: 3.18 | Z Ratio: ANATOMICAL_STRUCTURE_DEVELOPMENT [2]: 4.47 | Z Ratio: ANATOMICAL_STRUCTURE_MORPHOGENESIS [2]: 3.39 | Z Ratio: AXON_GUIDANCE [2]: 3.34 | Z Ratio: CELL_DEVELOPMENT [2]: 3.44 | Z Ratio: CELL_JUNCTION [2]: 3.29 | Z Ratio: CELL_MATRIX_ADHESION [2]: 3.18 | Z Ratio: CELL_MATRIX_JUNCTION [2]: 3.20 | Z Ratio: CELL_SUBSTRATE_ADHERENS_JUNCTION [2]: 3.17 | Z Ratio: CELL_SURFACE_RECEPTOR_LINKED_SIGNAL_TRANS-DUCTION_GO_000166 [2]: 3.17 | Z Ratio: CYTOSKELETAL_PROTEIN_BINDING [2]: 3.36 | Z Ratio: EARLY_ENDOSOME [2]: 3.37 | Z Ratio: ENZYME_LINKED_RECEPTOR_PROTEIN_SIGNALING_PATHWAY [2]: 4.05 | Z Ratio: EXTRACELLULAR_REGION [2]: 4.10 | Z Ratio: EXTRACELLULAR_REGION_PART [2]: 3.82 | Z Ratio: EXTRACELLULAR_SPACE [2]: 3.66 | Z Ratio: FOCAL_ADHESION [2]: 3.44 | Z Ratio: FOCAL_ADHESION_FORMATION [2]: 3.83 | Z Ratio: GENERATION_OF_NEURONS [2]: 3.34 | Z Ratio: Growth [2]: 3.85 | Z Ratio: IDENTICAL_PROTEIN_BINDING [2]: 3.19 | Z Ratio: INTERMEDIATE_FILAMENT [2]: 3.61 | Z Ratio: INTERMEDIATE_FILAMENT_CYTOSKELETON [2]: 3.61 | Z Ratio: LIGAND_DEPENDENT_NUCLEAR_RECEPTOR_ACTIVITY [2]: 3.26 | Z Ratio: LIPID_HOMEOSTASIS [2]: 3.28 | Z Ratio: MEMBRANE [2]: 3.55 | Z Ratio: MESODERM_DEVELOPMENT [2]: 3.45 | Z Ratio: MULTICELLULAR_ORGANISMAL_DEVELOPMENT [2]: 4.64 | Z Ratio: NEGATIVE_REGULATION_OF_GROWTH [2]: 3.84 | Z Ratio: NERVOUS_SYSTEM_DEVELOPMENT [2]: 3.39 | Z Ratio: NEUROGENESIS [2]: 3.21 | Z Ratio: NEURON_PROJECTION [2]: 3.62 | Z Ratio: OLIGOSACCHARIDE_METABOLIC_PROCESS [2]: 3.82 | Z Ratio: ORGAN_DEVELOPMENT [2]: 4.28 | Z Ratio: PDZ_DOMAIN_BINDING [2]: 3.26 | Z Ratio: PHOSPHOINOSITIDE_BINDING [2]: 4.49 | Z Ratio: PLASMA_MEMBRANE [2]: 3.46 | Z Ratio: POSITIVE_REGULATION_OF_SECRETION [2]: 3.51 | Z Ratio: RECEPTOR_BINDING [2]: 4.25 | Z Ratio: REGULATION_OF_CELL_GROWTH [2]: 3.49 | Z Ratio: REGULATION_OF_GROWTH [2]: 3.48 | Z Ratio: REGULATION_OF_SIGNAL_TRANSDUCTION [2]: 3.77 | Z Ratio: SENSORY_PERCEPTION [2]: 3.57 | Z Ratio: SIALYLTRANSFERASE_ACTIVITY [2]: 1.61 | Z Ratio: SIGNAL_TRANSDUCTION [2]: 3.47 | Z Ratio: SYSTEM_DEVELOPMENT [2]: 4.69 | Z Ratio: SYSTEM_PROCESS [2]: 3.74 | Z Ratio: TASTE_RECEPTOR_ACTIVITY [2]: 3.36 | Z Ratio: TRANSMEMBRANE_RECEPTOR_PROTEIN_TYROSINE_KINASE_SIGNALING_PATH [2]: 3.18 | Z Ratio: VACUOLE [2]: 3.19 | number of the top 50 downregulated pathways related to the cell cycle (FK866-treated neurospheres): 13 | top 50 upregulated pathways involved in cell death (FK866-treated neurospheres): none
